Assay results taken from US7655695B2, “Illudin analogs useful as anticancer agents” (The Regents of The University of California, priority 2005, dated 2010).
≈ marks a conversion by molar mass, not a printed value. Where two headings read alike, the source gives them in different places.

Columns and labels:
[1] = test system: AsPC-1 pancreatic carcinoma; test: MTS viability assay, 1 hour exposure, AsPC-1; format: cell-based
Method: (§1) Using four different cell lines, HT29 colon, OVCAR-3 ovarian, AsPC-1 pancreatic, and PC-3 prostate carcinoma, the IC50 values of compound 6 and irofulven were established for one hour incubations using the MTS viability assay (Buttke T. M. et al., J Immunol Methods. 1993, 157, 233).

[2] = Pharmacokinetics after single intravenous administration in male CD-1 mice; format: in vivo, mouse; conditions: for clearance: read-out: CLp (converted); for Vd: read-out: Vdss
Method: The pharmacokinetics (PK) of Compound 6 was investigated in the CD-1 male mouse. A single intravenous administration of 5 mg/kg was followed by sequential blood collections and analysis of plasma by LC/MS/MS.

[3] = Plasma stability in pooled fresh human plasma at 37° C., LC/MS/MS; format: in vitro ADME
Description: Compounds 6 and 7 were compared against irofulven for their respective plasma stability (e.g., the enhanced stability or in vivo terminal phase elimination half life (T½) of a compound in plasma; it is believed that the greater the stability and T½ the more likely it is that the compound will be incorporated into or have an effect on a cancerous cell, such as cells of a tumor or a hematologic cancerous cell). Pooled fresh human plasma was spiked with each analog, and the compound stability profile was measured at 37° C. using LC/MS/MS. […] These properties differentiate Compounds 6 and 7 from irofulven and may have enhanced therapeutic potential. The increased plasma stability of Compound 6 may be particularly advantageous in drug formulation and delivery as it relates to increased exposure of the tumor to the drug. Thus, compound 6 has increased stability in human plasma in vitro (FIG. 3).

[4] = test system: subcutaneous MV522 tumors; test: MV522 mouse xenograft model; format: in vivo; conditions: 3/wk for 21 d; for PR (Partial Response): mice with partial response/mice
Method: The MV522 xenograft model was used to test the in vivo activity of compounds 6 and 7 as previously described (Kelner M. J. et al., Invest New Drugs. 1996, 14, 161). Mice bearing subcutaneous MV522 tumors were dosed intraperitoneally three times a week for three weeks (3/wk for 21 d) at 10 mg/kg of irofulven, doses ranging from 7.5 to 10 mg/kg for compound 6, or 5 to 15 mg/kg for compound 7 (FIGS. 1 and 2 and Table 3). Compound 6 had potent anti-tumor activity against MV522 tumors, producing 4/6 and 5/5 partial responses in mice treated with 7.5 and 10 mg/kg doses, respectively.
The MV522 xenograft model was used to test the in vivo activity of Compound 6 administration on a weekly schedule. Nude mice bearing subcutaneous MV522 tumors were dosed intraperitoneally (IP) 1/wk for 14 d at 17.5 mg/kg Compound 6 vs 7.5 mg/kg Compound 6 or 10 mg/kg irofulven on the intermittent schedule (3/wk for 21 d). The comparator dosages were the previously-determined efficacious MTDs for the 3/wk for 21 d schedule (FIG. 5).

HT29 colon carcinoma = test: MTS viability assay, 1 hour exposure, HT29; format: cell-based; conditions: Homo sapiens, HT-29, HT29, 1 hour exposure
Method: as §1

PC-3 prostate carcinoma = test: MTS viability assay, 1 hour exposure, PC-3; format: cell-based; conditions: PC-3, 1 hour exposure
Method: as §1

[5] = Maximum tolerated dose on the 3/wk for 21 d schedule; conditions: nude, mouse, in vivo, IP, read-out: previously-determined efficacious MTD
Method: A novel dosing schedule for acyfulvene analogs is described herein. This dosing schedule requires less frequent administration of individual dosages exceeding the previously-determined maximum tolerated dose (MTD) for each dose on an intermittent schedule of 3/wk for 21 d. For example, compound 6 was tested on a dosing schedule of 1/wk for 14 d. On this schedule, the total cumulative dose was less than the total cumulative dose administered on the 3/wk for 21 d-schedule, but with equal efficacy (FIG. 5). The 3/wk for 21 d dosing schedule is a standard method of administration for irofulven. The 1/wk for […] schedule for Compound 6 disclosed herein was unexpected based on prior work and presents a unique opportunity to administer less total dose of a cytotoxic chemotherapeutic less frequently and thereby reduce the overall toxic effect on the patient. This represents an increase in human safety and compliance, as a weekly dosing schedule is easier to follow than a more frequent dosing schedule.
The MV522 xenograft model was used to test the in vivo activity of Compound 6 administration on a weekly schedule. […] The comparator dosages were the previously-determined efficacious MTDs for the 3/wk for 21 d schedule (FIG. 5).

[6] = test system: OVCAR-3 ovarian carcinoma; test: MTS viability assay, 1 hour exposure, OVCAR-3; format: cell-based; conditions: Homo sapiens, OVCAR-3, 1 hour exposure
Method: as §1

MV522 lung cancer cells = test: Thymidine incorporation into cellular DNA, 2 hour exposure, MV522 tumor cell line; format: cell-based; conditions: MV522, 2 hour exposure
Description: The anti-cancer activities of compounds 6, 7, 14, 16, 18, 20, 21 and 22 were compared to that of irofulven, 3, using MV522 lung cancer cells in vitro (See Kelner M. J. et al., Cancer Res. 1987, 47, 3186).

[7] = Homo sapiens, ASPC1, AsPC-1, 1 hour exposure, read-out: GI50
[8] = mouse, plasma, 5 mg/kg single IV
[9] = mouse, plasma, 5 mg/kg IV, concentrations extrapolated from a 12.9 mg/kg IV dose

CC1=C(CN(O)C(N)=O)C2=C(C)C3(CC3)[C@@](C)(O)C(=O)C2=C1 [Compound 6, N-hydroxy-N-(methylacylfulvene)urea]
GI50 ([1]; AsPC-1, 1 hour exposure): greater potency
GI50 [1, 7]: 16 µg/mL (≈ 52.6 µM)
AUC(0-t) ([2]; 5 mg/kg single IV): greater
CLp ([2]; 5 mg/kg single IV): reduced
Cmax ([2]; 5 mg/kg single IV): greater
T1/2 ([2]; 5 mg/kg single IV): significantly longer
Vdss ([2]; 5 mg/kg single IV): reduced
AUC(0-inf) [2, 8]: 2200 ng·h/mL
half-life [2, 8]: 142 min
AUC(0-t) ([2]; mouse, plasma, 5 mg/kg single IV, read-out: AUC (0-t)): 2200 ng·h/mL
clearance [2, 8]: 37.8 mL/min/kg
Cmax ([2]; mouse, plasma, 5 mg/kg single IV, read-out: Cmax): 9730 ng/mL
Vd [2, 8]: 0.548 L/kg
stability in human plasma compared with irofulven [3]: more stable
% Tumor Growth Inhibition ([4]; 7.5 mg/kg i.p.): 100%
Relative Mean Tumor Weight (Wt/Wi) ([4]; 7.5 mg/kg i.p.): 0.9
PR (Partial Response) ([4]; 7.5 mg/kg i.p.): 4/6
% Tumor Growth Inhibition ([4]; 10 mg/kg i.p.): 100%
Relative Mean Tumor Weight (Wt/Wi) ([4]; 10 mg/kg i.p.): 0.3
PR (Partial Response) ([4]; 10 mg/kg i.p.): 5/5
GI50 (HT29 colon carcinoma): 0.68 µg/mL (≈ 2.23 µM)
GI50 (PC-3 prostate carcinoma): 0.41 µg/mL (≈ 1.35 µM)
MTD at 21 d [5]: 7.5 mg/kg
GI50 [6]: 0.6 µg/mL (≈ 1.97 µM)

CC(=O)ON(CC1=C(C)C=C2C(=O)[C@](C)(O)C3(CC3)C(C)=C21)C(N)=O [Compound 7, N-Acetoxy-N-(methylacylfulvene)urea]
stability in human plasma compared with irofulven [3]: less stable
% Tumor Growth Inhibition ([4]; 5 mg/kg i.p.): 56%
Relative Mean Tumor Weight (Wt/Wi) ([4]; 5 mg/kg i.p.): 4.5
% Tumor Growth Inhibition ([4]; 5 mg/kg i.p., listed as compound 7): 56%
% Tumor Growth Inhibition ([4]; 10 mg/kg i.p.): 79%
Relative Mean Tumor Weight (Wt/Wi) ([4]; 10 mg/kg i.p.): 2.2
% Tumor Growth Inhibition ([4]; 10 mg/kg i.p., listed as compound 7): 79%
% Tumor Growth Inhibition ([4]; 15 mg/kg i.p.): 100%
Relative Mean Tumor Weight (Wt/Wi) ([4]; 15 mg/kg i.p.): 0.7
PR (Partial Response) ([4]; 15 mg/kg i.p.): 4/6

CC1=C(CO)C2=C(C)C3(CC3)[C@@](C)(O)C(=O)C2=C1 [Irofulven, 6-hydroxymethylacylfulvene, reference compound]
GI50 [1, 7]: > 100 µg/mL
AUC(0-inf) [2, 9]: 695 ng·h/mL
half-life [2, 9]: 5.93 min
AUC(0-t) ([2]; mouse, plasma, 5 mg/kg IV, concentrations extrapolated from a 12.9 mg/kg IV dose, read-out: AUC (0-t)): 691 ng·h/mL
clearance [2, 9]: 120 mL/min/kg
Cmax ([2]; mouse, plasma, 5 mg/kg IV, concentrations extrapolated from a 12.9 mg/kg IV dose, read-out: Cmax): 5650 ng/mL
Vd [2, 9]: 0.948 L/kg
IC50 (MV522 lung cancer cells): 1200 ± 100 nM
% Tumor Growth Inhibition ([4]; 10 mg/kg i.p.): 100%
Relative Mean Tumor Weight (Wt/Wi) ([4]; 10 mg/kg i.p.): 0.8
PR (Partial Response) ([4]; 10 mg/kg i.p.): 6/7
GI50 (HT29 colon carcinoma): 1.4 µg/mL (≈ 5.68 µM)
GI50 (PC-3 prostate carcinoma): 0.58 µg/mL (≈ 2.35 µM)
MTD at 21 d [5]: 10 mg/kg
GI50 [6]: 0.15 µg/mL (≈ 0.609 µM)
